SMILES | melting point [°C]
CC(=O)Nc1c(C(=O)c2cccc(NS(C)(=O)=O)c2)[nH]c2cc(Cl)ccc12 | 133 to 142
COC(=O)/C=C(\C)c1ccc(OCc2nc(-c3ccccc3)oc2C)cc1 | 125 to 126
OCc1cnc(C(O)c2cc(F)ccc2F)c(F)c1 (centres undefined) | 94 to 96
CCc1cnc2c(NC(=O)c3c(Cl)cccc3Cl)cccc2c1/C=C/C(N)=O | > 250
ClCc1ccc(C#Cc2ccccc2)cc1 | 61.5 to 63.5
N#Cc1c(N)nc2ccc(N3CCN(Cc4ccccc4)CC3)cc2c1NCc1ccccc1 | 202
CCC1(CC(=O)O)OCCc2nc(-c3ccccc3)sc21 (centres undefined) | 106 to 108
COc1cc2c(cc1O)CC(C)(C)N(C(=O)c1cc(OC)c(OC)c(OC)c1)C2C (centres undefined) | 198 to 200
COc1ccc(-c2cc3ccccc3[nH]2)cc1OC | 188
Clc1cc2nc(NC3=NCCN3)[nH]c2c(Cl)c1Cl | 324 to 326
COC(=O)CN1C(=O)CN=C(c2ccccc2)c2cc(Cl)ccc21 | 137 to 138
O=c1cc2c(nn1-c1ccc(Cl)cc1)-c1cc(CO)sc1CCC2 | 118 to 121
COc1ccc2cc([C@H](C)C(=O)NNC(=O)CCCO[N+](=O)[O-])ccc2c1 | 117 to 119
C[C@H]1CCCC(C)(C)[C@@H]1C(=O)c1cc(F)c(F)c(F)c1 | 56.7
COc1cccc(Cc2nc3c(N)ncnc3[nH]2)c1 | 163 to 165
O=C1CCC(O)(c2ccccc2Cc2ccccc2)CC1 | 138 to 140
CC(=O)N(C#N)Cc1ccc(CN(C#N)C(C)=O)cc1 | 160 to 162
Cc1nc2ccc(C(=O)NS(=O)(=O)c3ccccc3)nc2n1Cc1ccc(C(=O)O)cc1Cl | 155 to 160
CC(C)COC(=O)Nc1cccc(-c2ccnc3c(-c4cccs4)cnn23)c1 | 140 to 141
COc1ccc(S(=O)(=O)n2c(=O)[nH]c3cc(Cl)ccc3c2=O)cc1OC | > 250
O=C(Nc1ccc(Oc2cc(Cl)ncn2)cc1)Nc1ccc(Br)c(C(F)(F)F)c1 | 179 to 182
Cc1c(C)c2c(c(C)c1N)C(=O)C(C)(C)O2 | 92 to 93
CCOC(=O)c1cnn2c(-c3cccc(C)c3)ccnc12 | 69 to 70

SMILES | melting point [°C]
COc1cc2[nH]c(=O)c3c(c2cc1OC)CCN(CCN1CCCCC1)C3 | 185 to 188
O=C(NCCN1CCOCC1)Nc1nc2ccc(OCc3c(Cl)cccc3Cl)cc2[nH]1 | 256 to 259
O=C1[C@H]2CCC[C@H]2N(C(=O)CCl)c2ccccc2N1Cc1ccccc1 (relative stereo) | 154 to 156
COc1ccccc1NC(=O)Nc1nc(Nc2ccccc2-c2ccccc2)nc(N(CCC(=O)O)Cc2cccc3ccccc23)n1 | 218 to 221
CCCCCCCCCCCCCCCCCCOc1cc(C(N)=O)cc(N(CC(=O)O)CC(=O)O)c1 | 213 to 216
c1cncc(-c2ccnc3nccn23)c1 | 162 to 164
Cc1c(NC(=O)CC(C)(C)C)cc2c(c1C)OC(C)(C)C2c1ccc(C(C)C)cc1 (centres undefined) | 172 to 173
COc1cc2ncnc(N3CCN(C(=O)Nc4ccc(N)cc4)CC3)c2cc1OC | 215 to 217
COc1ccc(S(=O)(=O)N2C(=O)C(O)(c3ccccc3OC)c3cc(Cl)c(C)cc32)c(OC)c1 (centres undefined) | 207 to 208
O=C(O)c1ncn2c1[C@@H]1CCN1C(=O)c1ccccc1-2 | 232
COc1cc2c(=O)[nH]c3c(c2cc1OC)c1ccccc1n3C | > 310
Cc1cc(C)cc(COC(=O)[C@H](Cc2cccc3ccccc23)NC(=O)OC(C)(C)C)c1 | 93 to 94
CCN(CCN(CC)c1ccc(N=O)c(C)c1)c1ccc(N=O)c(C)c1 | 157
COc1ccc(-c2cc(-c3ccccc3F)c(C#N)c(C)n2)cc1 | 152 to 153
CC(C)N(Cc1coc(-c2ncn3c2CN(C)C(=O)c2c(Cl)cccc2-3)n1)C(C)C | 164 to 166
CCOC(=O)c1nc(-c2ccc(Cl)cc2Cl)n(-c2ccc(Cl)cc2)c1CF | 124 to 125
CCc1ccc(C2COc3c(C)c(C)c(N)c(C)c32)cc1 (centres undefined) | 88 to 89
O=C(Nc1cccc(Cl)c1)c1cc(Br)ccc1O | 231 to 232
COc1cc(C(F)(F)F)nc2c(N3CCC4(CC3)OCCO4)ccc(F)c12 | 101 to 103
CSc1nccc(-c2cc(C)ccc2NC(=O)C(C)C)n1 | 134 to 135
CCSC1CC2(C)C(CCC3C4CCC(C(C)=O)C4(C)CC(=O)C32)CC1O (centres undefined) | 170 to 173
CN1C(=O)C2CCCN2Cc2cc(Cl)ccc21 (centres undefined) | 97 to 99
CCOCCc1c(-c2ccc(Cl)cc2)nc(N)n2ncnc12 | 183 to 185

Other lines, results leading:

melting point [°C] | SMILES
78 to 81 | COc1ccnc(C(C)Sc2nc3cc(OC(F)(F)C(F)F)ccc3[nH]2)c1 (centres undefined)
225 to 226 | O=C(c1ccc(Nc2ccnc3cc(C(F)(F)F)ccc23)cc1)N1CC=C(c2ccc(Cl)cc2)CC1
> 300 | Clc1ccc(-c2cnc3cc4cn[nH]c4cc3n2)s1
190 to 192 | Cn1c2ccccc2c2oc(C#N)cc(=O)c21
187 to 188 | CNC(=O)C(NC(=O)C(CC(=O)O)N1C=CN(c2ccc(-c3ccccc3)cc2)C1)C(C)(C)C (mixture of isomers)
175 to 181 | COc1cc(C(=O)NS(=O)(=O)c2ccccc2Cl)ccc1Cc1cn(C)c2ccc(CCNC(=O)N3CCOCC3)cc12
188 | O=C(CC1CCOCC1)N[C@H]1CC[C@H](CCN2CCC(c3ccc(F)c4occc34)CC2)CC1
183 | O=C1c2ccccc2C(O)N1CCN1CCC(Cc2c[nH]c3ccc(F)cc23)CC1 (racemic)
148 to 152 | CCOC(=O)c1cn(-c2nc(N)c(F)cc2F)c2c(Cl)c(NCC(O)COC3CNC3)c(F)cc2c1=O (centres undefined)
90 | CCN(CC(=O)O)c1ccc(C=O)cc1[N+](=O)[O-]
142 to 144 | CCSCCOC(=O)C1=C(C)NC(C)=C(C(=O)OCC=Cc2ccccc2)C1c1cccc([N+](=O)[O-])c1 (centres undefined)
176 to 178 | COc1cccc(OC)c1C(=O)Nc1cc(C(C)(C)C)n[nH]1
182 to 185 | CCc1nc2c(N)nc3ccccc3c2n1CCCCS(C)(=O)=O
210 to 212 | O=C1OC(CO)CN2C1=Cc1ccsc1S2(=O)=O (centres undefined)
133 to 134 | CC(=O)NC(C)(C)c1ccc(CN2CCN(c3cccc(F)n3)CC2)cc1
65 to 66 | O=C1C=CC(OC2CCCCC2)N1 (centres undefined)
157 to 158 | CON(C)C(=O)c1sc(SC)c2c1CCc1sc(-c3ccccc3)nc1-2
> 260 | Cn1ccc2c(-n3cc(C(=O)O)c4cccnc43)ncnc21
193 to 194 | Cc1ncccc1CC(=NC#N)NC1CCCc2ccccc21 (centres undefined)
212 to 214 | Cc1ccc(Nc2nc(C)cs2)nc1
162 to 164 | O=S1(=O)C(c2ccsc2)=CCC=C1c1ccsc1
146 to 148 | CCOC(=O)c1cc(CC)sc1Nc1ccc([N+](=O)[O-])cc1[N+](=O)[O-]
136 | CC=Cn1c(C(F)(F)F)nn(-c2c([N+](=O)[O-])cc(C(F)(F)F)cc2[N+](=O)[O-])c1=O
215 to 217 | O=C(Nc1ccc2[nH]c(=O)oc2c1)C(=O)N1CCC(Cc2cccc(F)c2)CC1
137 to 140 | Cn1cc2c(C=O)c(Br)ccc2n1
81 | Cc1nn(C(=O)NC(C)C)c(=O)n1C
234 to 239 | CS(=O)(=O)Nc1cccc(Nc2nc(NC3CCCC3)c3nc[nH]c3n2)c1

melting point [°C] | SMILES
99.7 to 101 | O=Cc1c(-c2ccc(Cl)cc2)sc2ccccc12
> 300 | CC(=O)NCCNc1nc(Nc2ccc3[nH]nnc3c2)ncc1C(F)(F)F
230 | COc1cnc(CS(C)(=O)=O)nc1O
129 to 130 | Nc1cc(F)c(NCC(O)CO)cc1[N+](=O)[O-] (centres undefined)
111 to 114 | CCOc1cc(OCC)c2c(=O)c(OCC)c(-c3ccccc3)oc2c1
85 | CC(=O)OCC(C)(COC(C)=O)C(=O)O
85 to 90 | COC(=O)CCCc1cc2nc(Cl)ccc2n1S(=O)(=O)c1ccccc1
228 to 230 | COc1ccc(-c2cnn3c(N)c(-c4cccc(Cl)c4)c(CF)nc23)cc1OC
98 to 102 | CN1CC(CN2C(=O)C3(COc4cc5c(cc43)OCO5)c3ccccc32)OC1=O (centres undefined)
150 to 154 | CC(C)(C)OC(=O)N[C@H]1CC[C@H](CCN2CCN(c3cccc(Cl)c3Cl)CC2)CC1
185 to 186 | C=C(C(=O)OCC)N1C(C)(C)CC(OC(=O)C=CC(=O)OC2CC(C)(C)N(C(=C)C(=O)OCC)C(C)(C)C2)CC1(C)C
164 | O=C(C=Cc1cccc(S(=O)(=O)Nc2ccc3ccccc3c2)c1)NO
110 | Clc1nc(Nc2ccc(OCc3ccccc3)c(Cl)c2)nc(NC2CCCCCC2)n1
223 to 224 | N#CCCNC(=O)c1cccc(-c2cccc3nc(C(O)c4cccc(C(F)(F)F)c4)cn23)c1 (centres undefined)
162 to 163 | CON=C(C(=O)O)c1csc(NC(=O)OCC(Cl)(Cl)Cl)n1
38 | C=Cc1ccc(-c2ccccc2F)cc1
95 to 96 | CC(C)(C)OC(=O)N1C[C@H](OS(C)(=O)=O)C[C@H]1CO
150 to 151 | O=Cc1c2n(c3ccncc13)CCC2
206 | CCCC(CCC)N1Cc2c(C(=O)O)cc(N(C)S(C)(=O)=O)cc2C1=O
126 to 127 | Cc1nc(-c2ccc(C(F)(F)F)cc2)sc1COc1ccc(CC(=O)O)cc1Cl
224 to 226 | Cc1ccc(Nc2c([N+](=O)[O-])cc(C(=O)O)cc2S(N)(=O)=O)c(C)c1
108 to 109 | Cn1nc(-c2ncc(Cl)cc2F)c([N+](=O)[O-])c1OC(F)F
121 to 122 | CCCn1c(N)cc(=O)n(CC2CCCCC2)c1=O
65 to 66 | CCOC(=O)c1ccc([N+](=O)[O-])cc1CBr
96 to 100 | CN1C(=O)C2C3CCC(C3)C2(c2ccc(F)c(F)c2)C1=O (centres undefined)
200 | Cc1ccnc(-c2nc(=O)c3ccccc3s2)c1

From a melting point compilation (Tetko et al.; mined from patent text by program, amines drawn as free bases though some values may be those of a salt)
